In paper PMC9816194, “Use of the head-twitch response to investigate the structure–activity relationships of 4-thio-substituted 2,5-dimethoxyphenylalkylamines” (Psychopharmacology, 2022):
Read-outs that look alike come from different tables or passages of the source.

What was measured:
[1] = system: male C57BL/6 J mice; parameters: method as in Halberstadt et al. (2019a); conditions: HTR, previous experiment using similar methods; ref Halberstadt et al. (2019a); cited from earlier work
[2] = system: male C57BL/6 J mice; test: Head-twitch response (HTR), magnetometer coil recording; type: in vivo; conditions: for HTR Counts (Mean ± SEM): 30 min; for ED50: Mus musculus, 0.5 h, HTR, 30 min recording, male C57BL/6 J mice
Method: Male C57BL/6 J mice (Jackson Laboratory, Bar Harbor, ME) were housed in a vivarium at the University of California San Diego (UCSD), which is an AAALAC-approved animal facility that complies with Federal and State requirements for care and treatment of laboratory animals. The mice (6–8 weeks old) were housed in a climate-controlled room with a reversed light-cycle (lights on at 19:00 h, off at 07:00 h) up to 4 animals per cage. Food and water were provided ad libitum, except during behavioral testing which occurred between 10:00 and 18:00 h. All experiments were conducted according to NIH guidelines and were approved by the UCSD animal care committee.
Head movement was recorded using a head-mounted magnet and a magnetometer coil (Halberstadt and Geyer [2013]). Briefly, mice were anesthetized, a small incision was made in the scalp, and a neodymium magnet was attached to the dorsal surface of the cranium using dental cement. Following a 1–2-week recovery period, behavioral experiments were conducted in a well-lit room with at least 7 days between sessions to avoid any carryover effects. Mice were treated with vehicle or test compound and then placed in a glass cylinder surrounded by a magnetometer coil and activity was recorded for 30 min. All test substances were administered IP dissolved in saline using an injection volume of 5 mL/kg. Coil voltage was filtered (5–10 kHz lowpass), digitized (20 kHz sampling rate), and saved to disk using a Powerlab/8SP with LabChart v 7.3.2 (ADInstruments, Colorado Springs, CO). To detect head twitches, events in the recordings were converted into scalograms using a wavelet transform and then the images were classified using a multistage approach combining the deep convolutional neural network (CNN) ResNet-50 with a support vector machine (SVM) algorithm (Halberstadt [2020]). HTR counts were analyzed using a one-way Welch analysis of variance (ANOVA). Post hoc pairwise comparisons were performed using Dunnett’s test. […] Median effective doses (ED50 values) and 95% confidence intervals were calculated using nonlinear regression (Prism ver. 9.0.2, GraphPad Software Inc, San Diego, CA, USA).

[3] = biological target: T1, human 5-HT2A receptor (Homo sapiens, UniProt P28223); parameters: expressed in transfected cells; host or cells: HEK 293 (transient); method as in Luethi et al. 2018; conditions: 5-HT2A calcium flux assays; ref Luethi et al. 2018; cited from earlier work
[4] = biological target: T1, human 5-HT2A receptor; parameters: expressed in transfected cells; host or cells: HEK 293 (transient), membrane preparations; conditions: read-out: 5-HT2A Ki; [3H]ketanserin; ref Luethi et al. (2018); cited from earlier work
[5] = biological target: T2, h5-HT2C receptors (Homo sapiens, UniProt P28335); test: 5-HT2C receptor binding, [3H]mesulergine displacement
T2 construct: expressed in transfected cells; host or cells: HEK 293 (transient), membrane preparations
T2 sequence (P28335 33-458): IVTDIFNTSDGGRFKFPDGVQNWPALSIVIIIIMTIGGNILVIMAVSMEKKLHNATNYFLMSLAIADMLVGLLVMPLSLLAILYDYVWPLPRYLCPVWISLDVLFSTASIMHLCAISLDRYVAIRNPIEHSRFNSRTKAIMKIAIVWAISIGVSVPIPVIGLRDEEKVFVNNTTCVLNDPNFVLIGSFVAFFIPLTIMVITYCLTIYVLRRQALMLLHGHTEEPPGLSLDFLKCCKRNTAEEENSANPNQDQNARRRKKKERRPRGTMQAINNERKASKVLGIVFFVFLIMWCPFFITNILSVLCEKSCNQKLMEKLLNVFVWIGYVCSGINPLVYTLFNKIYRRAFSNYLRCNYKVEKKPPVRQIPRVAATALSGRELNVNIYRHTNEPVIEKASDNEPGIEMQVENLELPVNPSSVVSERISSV
Method: (§1) 5-HT receptor binding affinities were assessed as previously described in detail (Luethi et al. [2018]). In brief, membrane preparations of transiently transfected HEK 293 cells were incubated with selective radioligands at concentrations equal to the corresponding Kd and then ligand displacement by the test drugs was measured. The difference between the total binding and the nonspecific binding determined in the presence of selective competitors was defined as specific binding. The following radioligands and competitors, respectively, were used: 0.40 nM [^3H]ketanserin and 10 μM spiperone (serotonin 5-HT2A receptor), 1.4 nM [^3H]mesulergine and 10 μM mianserin (serotonin 5-HT2C receptor). The IC50 values of the radioligand binding assays were determined using nonlinear regression curves for every drug in a one-site model. Ki values corresponding to the dissociation constants were calculated with the Cheng-Prusoff equation.

[6] = biological target: T3, human 5-HT2B receptor (Homo sapiens, UniProt P41595); test: Agonist activity at the 5-HT2B receptor, FLIPR calcium flux in HEK 293 cells; type: cell-based; conditions: for Emax: HEK293, calcium flux, read-out: h5-HT2B Emax
T3 construct: expressed in transfected cells
Method: HEK 293 cells stably expressing the human 5-HT2B receptor were incubated overnight in poly-D-lysine-coated 96-well plates at a density of 50,000 cells per well and 37 °C. Thereafter, the growth medium was removed by snap inversion and 200 μL of no wash dye (FLIPR calcium 6 assay kit; Molecular Devices, Sunnyvale, CA, USA) was added to each well. The plates were incubated for 2 h at 37 °C and then placed into a FLIPR. Fifty microliters of the test drugs diluted in assay buffer was added to each well online and the increase in fluorescence was measured for 51 s. EC50 values were derived from the concentration–response curves using nonlinear regression.

[7] = system: humans; conditions: cited from earlier work
[8] = biological target: T1, human 5-HT2A receptor; test: Agonist activity at the 5-HT2A receptor, FLIPR calcium flux in NIH-3T3 cells; type: cell-based; parameters: expressed in transfected cells; conditions: for Emax: NIH3T3, calcium flux, relative to 5-HT, read-out: h5-HT2A Emax
Method: NIH-3T3 cells stably expressing the human 5-HT2A receptor were incubated in HEPES-Hank’s Balanced Salt Solution (HBSS) buffer (Gibco, Zug, Switzerland; 70,000 cells/100 μL) for 1 h at 37 °C in poly-D-lysine-coated 96-well plates. Thereafter, 100 μL of dye solution (fluorescence imaging plate reader [FLIPR] calcium 5 assay kit dye solution; Molecular Devices, Sunnyvale, CA, USA) was added to each well and the plates were incubated for 1 h at 37 °C. The plates were then placed into a FLIPR and 25 μL of the test drugs diluted in HEPES-HBSS containing 250 mM probenicid was added to each well online. The increase in fluorescence was measured for 51 s, and EC50 values were derived from the concentration–response curves using nonlinear regression.

[9] = biological target: T1, human 5-HT2A receptor; test: 5-HT2A receptor binding, [3H]ketanserin displacement; parameters: expressed in transfected cells; host or cells: HEK 293 (transient), membrane preparations
Method: as §1

[10] = IP, read-out: ED50 µmol/kg (95% CI)
[11] = IP, read-out: ED50 mg/kg (95% CI)

T3 sequence (P41595 whole entry): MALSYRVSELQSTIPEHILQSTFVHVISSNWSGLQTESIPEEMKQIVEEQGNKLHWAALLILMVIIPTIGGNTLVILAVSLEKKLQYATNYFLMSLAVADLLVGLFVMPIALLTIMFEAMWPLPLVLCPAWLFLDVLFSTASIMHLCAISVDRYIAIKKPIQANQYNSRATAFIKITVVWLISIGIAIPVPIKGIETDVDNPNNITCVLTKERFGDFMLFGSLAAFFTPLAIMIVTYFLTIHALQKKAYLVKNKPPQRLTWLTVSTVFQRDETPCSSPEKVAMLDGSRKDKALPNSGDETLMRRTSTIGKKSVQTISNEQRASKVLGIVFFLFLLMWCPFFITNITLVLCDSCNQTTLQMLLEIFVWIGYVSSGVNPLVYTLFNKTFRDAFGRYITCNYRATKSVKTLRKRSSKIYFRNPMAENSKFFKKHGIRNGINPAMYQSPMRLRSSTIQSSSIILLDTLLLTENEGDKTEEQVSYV
T1 sequence (P28223 whole entry): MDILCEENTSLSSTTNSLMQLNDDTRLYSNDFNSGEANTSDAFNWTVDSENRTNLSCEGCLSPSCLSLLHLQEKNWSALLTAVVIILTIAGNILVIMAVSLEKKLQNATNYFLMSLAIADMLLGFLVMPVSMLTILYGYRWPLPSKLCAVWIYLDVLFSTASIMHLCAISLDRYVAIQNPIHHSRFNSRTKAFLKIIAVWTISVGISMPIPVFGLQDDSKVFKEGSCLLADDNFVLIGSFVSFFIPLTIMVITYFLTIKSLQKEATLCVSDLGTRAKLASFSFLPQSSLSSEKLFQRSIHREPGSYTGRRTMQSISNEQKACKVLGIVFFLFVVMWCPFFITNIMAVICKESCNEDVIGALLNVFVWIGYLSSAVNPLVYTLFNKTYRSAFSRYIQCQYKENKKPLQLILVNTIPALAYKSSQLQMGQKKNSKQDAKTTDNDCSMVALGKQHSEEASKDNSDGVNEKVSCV

Compound | HTR Counts (Mean ± SEM) ([2]; 3 mg/kg IP) | ED50 [2, 10] | ED50 [2, 11] | HTR Counts (Mean ± SEM) ([2]; 0.3 mg/kg IP) | HTR Counts (Mean ± SEM) ([2]; 1 mg/kg IP) | HTR Counts (Mean ± SEM) ([2]; 10 mg/kg IP) | Ki [5] | EC50 [6] | Emax [6] | EC50 [8] | Emax [8] | Ki [9] | also measured
COc1cc(OC)c(OC)cc1CC(C)N (stereo not shown) [TMA-2, 2,4,5-trimethoxyamphetamine] |  |  |  |  |  |  |  |  |  |  |  |  | ED50 µmol/kg (95% CI) [1]: 12.4 (8.6–17.8) ^[1] µmol/kg; ED50 mg/kg (95% CI) [1]: 2.79 (1.94–4.01) ^[1] mg/kg
COc1cc(SCc2ccccc2)c(OC)cc1CCN.Cl [Compound 2C-T-27, 4-benzylthio-2,5-dimethoxyphenethylamine hydrochloride] | 9.0 ± 0.8 | 7.3 µmol/kg | 2.48 mg/kg |  |  |  |  |  |  |  |  |  | HTR Counts (Mean ± SEM) ([2]; 1.5 mg/kg IP): 6.0 ± 1.6; HTR Counts (Mean ± SEM) ([2]; 6 mg/kg IP): 12.8 ± 2.0; HTR Counts (Mean ± SEM) ([2]; 12 mg/kg IP): 10.8 ± 3.6; HTR Counts (Mean ± SEM) ([2]; 24 mg/kg IP): 5.4 ± 2.0; effect on HTR counts (in words) ([2]; versus vehicle/baseline, IP): relatively weak; 5-HT2A agonist efficacy (in words) [3]: low efficacy partial agonists; Ki [4]: 1.6 nM
COc1cc(SC)c(OC)cc1CC(C)N.Cl (stereo not shown) [ALEPH, 2,5-Dimethoxy-4-methylthioamphetamine hydrochloride] | 115.0 ± 20.9 | 2.88 µmol/kg | 0.8 mg/kg | 19.4 ± 1.2 | 72.0 ± 12.1 | 74.0 ± 13.5 | 355 ± 76 nM | 19.2 ± 1.7 nM | 51 ± 2.6% | 10.3 ± 0.6 nM | 80 ± 2.3% | 77.8 nM | HTR Counts (Mean ± SEM) ([2]; 0.1 mg/kg IP): 7.8 ± 1.2; Human active dose range ([7]; ref Shulgin and Nichols 1978, Shulgin and Shulgin 1991): 5 to 15 mg
COc1cc(SCCF)c(OC)cc1CCN.Cl [Compound 2C-T-21, 2,5-dimethoxy-4-(2-fluoroethylthio)phenethylamine hydrochloride] | 61.8 ± 5.0 | 5.58 µmol/kg | 1.65 mg/kg | 8.8 ± 2.1 | 19.8 ± 2.7 | 72.6 ± 9.4 | 72.7 ± 10.6 nM | 102 ± 24 nM | 32 ± 1.8% | 9.7 ± 0.1 nM | 69 ± 4.8% | 27.7 ± 6.2 nM | Human potency range ([7]; dose range active as psychedelic in humans, ref Shulgin and Shulgin (1991)): 8–12 mg ^[5]; Human active dose range ([7]; p.o., ref Shulgin and Shulgin 1991, Trachsel et al. 2013): 8 to 20 mg
